In patent US10174067B2, “Type of cytidine derivative and application thereof” (priority 2014, dated 2019):
Marks after values point to notes of the source that are not given here.

How the values were obtained:
[1] = test system: HCT-116 colon cancer xenografts; test: Tumor growth inhibition of HCT-116 colon cancer xenografts in tumor-bearing nude mice (tumor volume, TGI %, RTV, T/C %); assay type: in vivo, Balb/c Nude mice; details: for T/C % (relative tumor proliferation rate): dosage 400 mg/kg (G10-G16 study);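 as to T/C % (relative tumor proliferation rate): control C is the vehicle-treated model control group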
Outline: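 Tumors in HCT-116-inoculated nude mice were sized three times weekly by diameter, with volume V=3/4π(D/2)^3. Significance set at P<0.05.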

[2] = Outline: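 Test compounds formulated in ethanol:Cremophor EL:saline (5:5:90), vehicle alone as control, in HCT-116 subcutaneous xenografts in female Balb/c nudes (6/group, start 60–150 mm^3). Weight measured three times weekly, tumour weight at end; unpaired t-test on Mean±SEM data.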
[3] = Day 0, G10-G16 groups, single IP 400 mg/kg
[4] = Day 0, G10-G16 groups, single IP 400 mg/kg, Mean±SEM
[5] = Day 1, G10-G16 groups, single IP 400 mg/kg, Mean±SEM
[6] = Day 2, G10-G16 groups, single IP 400 mg/kg, Mean±SEM
[7] = Day 4, G10-G16 groups, single IP 400 mg/kg, Mean±SEM
[8] = Day 7, G10-G16 groups, single IP 400 mg/kg, Mean±SEM
[9] = Day 9, G10-G16 groups, single IP 400 mg/kg, Mean±SEM
[10] = Day 11, G10-G16 groups, single IP 400 mg/kg, Mean±SEM
[11] = Day 14, G10-G16 groups, single IP 400 mg/kg, Mean±SEM
[12] = Day 16, G10-G16 groups, single IP 400 mg/kg, Mean±SEM
[13] = Day 18, G10-G16 groups, single IP 400 mg/kg, Mean±SEM
[14] = Day 21, G10-G16 groups, single IP 400 mg/kg, Mean±SEM
[15] = Day 23, G10-G16 groups, single IP 400 mg/kg, Mean±SEM
[16] = Day 25, G10-G16 groups, single IP 400 mg/kg, Mean±SEM
[17] = Day 28, G10-G16 groups, single IP 400 mg/kg, Mean±SEM
[18] = Day 30, G10-G16 groups, single IP 400 mg/kg, Mean±SEM

Question: Which results are given for CCCCOC(=O)Nc1nc(=O)n([C@@H]2O[C@H](COC(=O)Cn3cnc([N+](=O)[O-])c3)C(O)C2(F)F)cc1I (stereo partly shown) [Compound G12]?
Answer: Day 0 (RTV) [1, 3]: 1.00; Tumor volume, Day 0 [1, 4]: 70.49 ± 13.19* mm^3; T/C % (relative tumor proliferation rate) ([1]; Day 0): 0.00%; Day 1 (TGI %) ([1]; Day 1, G10-G16 groups, single IP 400 mg/kg): 62.26%; Day 1 (RTV) [1, 5]: 1.12 ± 0.22; Tumor volume, Day 1 [1, 5]: 68.13 ± 11.02** mm^3; T/C % (relative tumor proliferation rate) ([1]; Day 1): 66.60%; Day 2 (TGI %) ([1]; Day 2, G10-G16 groups, single IP 400 mg/kg): 63.70%; Day 2 (RTV) [1, 6]: 1.28 ± 0.22; Tumor volume, Day 2 [1, 6]: 80.54 ± 15.99** mm^3; T/C % (relative tumor proliferation rate) ([1]; Day 2): 61.57%; Day 4 (TGI %) ([1]; Day 4, G10-G16 groups, single IP 400 mg/kg): 58.48%; Day 4 (RTV) [1, 7]: 1.80 ± 0.23; Tumor volume, Day 4 [1, 7]: 123.31 ± 27.06** mm^3; T/C % (relative tumor proliferation rate) ([1]; Day 4): 65.24%; Day 7 (TGI %) ([1]; Day 7, G10-G16 groups, single IP 400 mg/kg): 51.81%; Day 7 (RTV) [1, 8]: 3.07 ± 0.38; Tumor volume, Day 7 [1, 8]: 208.41 ± 44.11** mm^3; T/C % (relative tumor proliferation rate) ([1]; Day 7): 75.07%; Day 9 (TGI %) ([1]; Day 9, G10-G16 groups, single IP 400 mg/kg): 49.03%; Day 9 (RTV) [1, 9]: 4.37 ± 0.50; Tumor volume, Day 9 [1, 9]: 300.88 ± 62.43* mm^3; T/C % (relative tumor proliferation rate) ([1]; Day 9): 77.79%; Day 11 (TGI %) ([1]; Day 11, G10-G16 groups, single IP 400 mg/kg): 51.33%; Day 11 (RTV) [1, 10]: 7.11 ± 1.07; Tumor volume, Day 11 [1, 10]: 475.09 ± 105.26** mm^3; T/C % (relative tumor proliferation rate) ([1]; Day 11): 77.05%; Day 14 (TGI %) ([1]; Day 14, G10-G16 groups, single IP 400 mg/kg): 39.61%; Day 14 (RTV) [1, 11]: 13.07 ± 2.18; Tumor volume, Day 14 [1, 11]: 869.70 ± 190.68* mm^3; T/C % (relative tumor proliferation rate) ([1]; Day 14): 94.48%; Day 16 (TGI %) ([1]; Day 16, G10-G16 groups, single IP 400 mg/kg): 30.00%; Day 16 (RTV) [1, 12]: 19.45 ± 2.82; Tumor volume, Day 16 [1, 12]: 1267.85 ± 225.13 mm^3; T/C % (relative tumor proliferation rate) ([1]; Day 16): 112.70%; Day 18 (TGI %) ([1]; Day 18, G10-G16 groups, single IP 400 mg/kg): 19.24%; Day 18 (RTV) [1, 13]: 26.31 ± 5.44; Tumor volume, Day 18 [1, 13]: 1613.91 ± 242.24 mm^3; T/C % (relative tumor proliferation rate) ([1]; Day 18): 137.82%; Day 21 (TGI %) ([1]; Day 21, G10-G16 groups, single IP 400 mg/kg): 21.29%; Day 21 (RTV) [1, 14]: 32.69 ± 8.02; Tumor volume, Day 21 [1, 14]: 1924.26 ± 257.46 mm^3; T/C % (relative tumor proliferation rate) ([1]; Day 21): 139.66%; Day 23 (TGI %) ([1]; Day 23, G10-G16 groups, single IP 400 mg/kg): 17.69%; Day 23 (RTV) [1, 15]: 33.10 ± 7.89; Tumor volume, Day 23 [1, 15]: 1943.90 ± 242.19 mm^3; T/C % (relative tumor proliferation rate) ([1]; Day 23): 167.43%; Day 25 (TGI %) ([1]; Day 25, G10-G16 groups, single IP 400 mg/kg): 17.26%; Day 25 (RTV) [1, 16]: 36.50 ± 8.74; Tumor volume, Day 25 [1, 16]: 2136.52 ± 258.58 mm^3; T/C % (relative tumor proliferation rate) ([1]; Day 25): 168.82%; Day 28 (TGI %) ([1]; Day 28, G10-G16 groups, single IP 400 mg/kg): 24.12%; Day 28 (RTV) [1, 17]: 43.13 ± 14.83; Tumor volume, Day 28 [1, 17]: 2040.64 ± 281.98 mm^3; T/C % (relative tumor proliferation rate) ([1]; Day 28): 204.13%; Day 30 (TGI %) ([1]; Day 30, G10-G16 groups, single IP 400 mg/kg): 16.67%; Day 30 (RTV) [1, 18]: 49.17 ± 15.89; Tumor volume, Day 30 [1, 18]: 2338.31 ± 292.39 mm^3; T/C % (relative tumor proliferation rate) ([1]; Day 30): 198.17%; Weight change rate, Day 0 [2, 3]: 0.00%; Weight of mice, Day 0 [2, 4]: 20.05 ± 0.26 g; Weight change rate, Day 1 [2, 5]: −2.59 ± 1.08%; Weight of mice, Day 1 [2, 5]: 19.53 ± 0.36 g; Weight change rate, Day 2 [2, 6]: −3.15 ± 0.93%; Weight of mice, Day 2 [2, 6]: 19.42 ± 0.29 g; Weight change rate, Day 4 [2, 7]: −1.54 ± 1.11%; Weight of mice, Day 4 [2, 7]: 19.73 ± 0.25 g; Weight change rate, Day 7 [2, 8]: −0.93 ± 1.50 %; Weight of mice, Day 7 [2, 8]: 19.85 ± 0.21 g; Weight change rate, Day 9 [2, 9]: 2.11 ± 2.28%; Weight of mice, Day 9 [2, 9]: 20.45 ± 0.32 g; Weight change rate, Day 11 [2, 10]: 3.34 ± 2.25%; Weight of mice, Day 11 [2, 10]: 20.70 ± 0.36 g; Weight change rate, Day 14 [2, 11]: 1.76 ± 2.11 %; Weight of mice, Day 14 [2, 11]: 20.38 ± 0.32 g; Weight change rate, Day 16 [2, 12]: 2.56 ± 1.91 %; Weight of mice, Day 16 [2, 12]: 20.55 ± 0.34 g; Weight change rate, Day 18 [2, 13]: 5.03 ± 2.23 %; Weight of mice, Day 18 [2, 13]: 21.05 ± 0.46 g; Weight change rate, Day 21 [2, 14]: 3.68 ± 2.13 %; Weight of mice, Day 21 [2, 14]: 20.78 ± 0.48 g; Day 22 Mortality ([2]; Day 22, single IP dose (mg/kg)): 0%; Weight change rate, Day 23 [2, 15]: 4.37 ± 1.91 %; Weight of mice, Day 23 [2, 15]: 20.92 ± 0.38 g; Weight change rate, Day 25 [2, 16]: 6.69 ± 1.87 %; Weight of mice, Day 25 [2, 16]: 21.38 ± 0.39 g; Weight change rate, Day 28 [2, 17]: 4.43 ± 0.69%; Weight of mice, Day 28 [2, 17]: 20.68 ± 0.31 g; Weight change rate, Day 30 [2, 18]: 5.67 ± 0.86%; Weight of mice, Day 30 [2, 18]: 20.93 ± 0.43 g; clinical symptoms ([2]; after single IP dose, compared with model control group): no significant differences in clinical symptoms
